From ChEMBL document CHEMBL4043108, “Identification of galiellalactone-based novel STAT3-selective inhibitors with cytotoxic activities against triple-negative breast cancer cell lines” (Bioorg Med Chem, 2017) come the findings set out here.

Calls of active or inactive are those of the source. The rule behind the calls is not given here.

The target of series [1] is Signal transducer and activator of transcription 3 (Homo sapiens) (UniProt P40763). The series is described as follows: Inhibition of STAT3 Ser727 phosphorylation in human MDA-MB-468 cells at 5 and 10 uM incubated for 4 hrs by Western blot. In kind it is cell-based.
Series [2] shares this target. In words: Inhibition of STAT3 transcriptional activity in human MDA-MB-468 cells at 5 uM incubated for 24 hrs by STAT3-dependent luciferase reporter assay. In kind it is cell-based. (Reporter assays use an easily measured gene product as a stand-in for the process of interest.)
The nature of series [3]: Toxicity in human MDA-MB-468 cells assessed as cell viability at 10 uM incubated for 24 hrs by MTT assay (reference value: 100%). Conditions: read-out: Activity. In kind it is cell-based. Background: Formazan colour is commonly taken as a measure of viable cells.
The test system of series [4] is MDA-MB-468. The series is described as follows: Cytotoxic activity against human MDA-MB-468 cells incubated for 24 hrs by MTT assay. It is filed as functional, cell-based. Conditions: MDA-MB-468, 24 h.
The target of series [5] is T1, Signal transducer and activator of transcription 1-alpha/beta (Homo sapiens) (UniProt P42224).
T1 sequence (whole entry): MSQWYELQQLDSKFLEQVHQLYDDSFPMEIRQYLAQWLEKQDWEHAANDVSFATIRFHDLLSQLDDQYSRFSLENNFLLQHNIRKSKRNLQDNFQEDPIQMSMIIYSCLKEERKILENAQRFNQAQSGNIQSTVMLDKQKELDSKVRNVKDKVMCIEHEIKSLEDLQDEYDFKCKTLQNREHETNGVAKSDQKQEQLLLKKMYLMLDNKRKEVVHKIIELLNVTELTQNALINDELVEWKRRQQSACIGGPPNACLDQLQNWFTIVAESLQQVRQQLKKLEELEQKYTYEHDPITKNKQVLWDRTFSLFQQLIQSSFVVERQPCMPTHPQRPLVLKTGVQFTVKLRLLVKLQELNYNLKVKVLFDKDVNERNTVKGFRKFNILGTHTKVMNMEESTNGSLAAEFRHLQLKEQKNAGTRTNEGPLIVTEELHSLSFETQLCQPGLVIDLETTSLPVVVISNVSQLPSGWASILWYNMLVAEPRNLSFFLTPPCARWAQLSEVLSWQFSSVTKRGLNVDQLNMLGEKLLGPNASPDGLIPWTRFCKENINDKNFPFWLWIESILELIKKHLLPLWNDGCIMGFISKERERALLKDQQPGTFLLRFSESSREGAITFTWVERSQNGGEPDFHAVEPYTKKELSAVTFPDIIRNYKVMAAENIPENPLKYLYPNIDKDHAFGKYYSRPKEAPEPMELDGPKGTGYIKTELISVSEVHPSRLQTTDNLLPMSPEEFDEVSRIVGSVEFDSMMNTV
In words: Inhibition of STAT1 Tyr701 phosphorylation in human MDA-MB-468 cells at 5 and 10 uM incubated for 4 hrs by Western blot. It is filed as cell-based. (In general: Immunoblotting shows a protein as a band on a membrane.)

For series [6], the system named is MDA-MB-468. The series is described as follows: Effect on total STAT3 protein level in human MDA-MB-468 cells at 5 and 10 uM incubated for 4 hrs by Western blot. It is filed as cell-based. Conditions: mda-mb-468, 4 h.
In series [7] the test system is MDA-MB-231. The series is described as follows: Cytotoxic activity against human MDA-MB-231 cells incubated for 24 hrs by MTT assay. Conditions: MDA-MB-231, 24 h. It is filed as functional, cell-based.
The nature of series [8]: Toxicity in human MDA-MB-468 cells assessed as cell viability at 5 uM incubated for 24 hrs by MTT assay (reference value: 100%). In kind it is cell-based. Conditions: read-out: Activity.
The subject of series [9] is BT-549. The series is described as follows: Cytotoxic activity against human BT549 cells incubated for 24 hrs by MTT assay. In kind it is functional, cell-based. Conditions: BT-549, 24 h.
Series [10] concerns the target Signal transducer and activator of transcription 3 (Homo sapiens) (UniProt P40763). In words: Inhibition of STAT3 Tyr705 phosphorylation in human MDA-MB-468 cells at 5 and 10 uM incubated for 4 hrs by Western blot. In kind it is cell-based.
In series [11] the target is T2, Signal transducer and activator of transcription 5A (Homo sapiens) (UniProt P42229).
T2 sequence (whole entry): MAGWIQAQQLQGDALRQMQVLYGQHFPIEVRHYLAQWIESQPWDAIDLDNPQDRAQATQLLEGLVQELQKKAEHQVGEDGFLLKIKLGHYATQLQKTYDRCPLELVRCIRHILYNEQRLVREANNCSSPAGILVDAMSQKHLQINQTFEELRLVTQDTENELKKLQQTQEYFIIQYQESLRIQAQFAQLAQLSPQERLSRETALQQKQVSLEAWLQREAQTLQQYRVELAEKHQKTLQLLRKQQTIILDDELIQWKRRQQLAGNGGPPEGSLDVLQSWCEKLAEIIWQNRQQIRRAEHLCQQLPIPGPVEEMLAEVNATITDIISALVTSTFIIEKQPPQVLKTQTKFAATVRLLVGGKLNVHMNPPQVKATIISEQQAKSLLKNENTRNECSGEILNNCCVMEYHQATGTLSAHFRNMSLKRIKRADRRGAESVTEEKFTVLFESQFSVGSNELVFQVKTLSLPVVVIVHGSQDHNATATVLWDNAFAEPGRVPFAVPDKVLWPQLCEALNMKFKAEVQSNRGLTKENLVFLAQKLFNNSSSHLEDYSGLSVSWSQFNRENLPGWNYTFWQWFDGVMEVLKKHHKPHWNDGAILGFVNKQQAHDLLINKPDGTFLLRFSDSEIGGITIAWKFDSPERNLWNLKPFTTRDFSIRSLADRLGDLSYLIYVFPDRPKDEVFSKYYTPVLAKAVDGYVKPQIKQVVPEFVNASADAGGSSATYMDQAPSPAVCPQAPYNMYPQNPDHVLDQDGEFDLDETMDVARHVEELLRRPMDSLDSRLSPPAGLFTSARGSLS
In words: Inhibition of STAT5 Tyr694 phosphorylation in human MDA-MB-468 cells at 5 and 10 uM incubated for 4 hrs by Western blot. In kind it is cell-based.

Signal transducer and activator of transcription 3 (Homo sapiens), sequence (P40763 whole entry): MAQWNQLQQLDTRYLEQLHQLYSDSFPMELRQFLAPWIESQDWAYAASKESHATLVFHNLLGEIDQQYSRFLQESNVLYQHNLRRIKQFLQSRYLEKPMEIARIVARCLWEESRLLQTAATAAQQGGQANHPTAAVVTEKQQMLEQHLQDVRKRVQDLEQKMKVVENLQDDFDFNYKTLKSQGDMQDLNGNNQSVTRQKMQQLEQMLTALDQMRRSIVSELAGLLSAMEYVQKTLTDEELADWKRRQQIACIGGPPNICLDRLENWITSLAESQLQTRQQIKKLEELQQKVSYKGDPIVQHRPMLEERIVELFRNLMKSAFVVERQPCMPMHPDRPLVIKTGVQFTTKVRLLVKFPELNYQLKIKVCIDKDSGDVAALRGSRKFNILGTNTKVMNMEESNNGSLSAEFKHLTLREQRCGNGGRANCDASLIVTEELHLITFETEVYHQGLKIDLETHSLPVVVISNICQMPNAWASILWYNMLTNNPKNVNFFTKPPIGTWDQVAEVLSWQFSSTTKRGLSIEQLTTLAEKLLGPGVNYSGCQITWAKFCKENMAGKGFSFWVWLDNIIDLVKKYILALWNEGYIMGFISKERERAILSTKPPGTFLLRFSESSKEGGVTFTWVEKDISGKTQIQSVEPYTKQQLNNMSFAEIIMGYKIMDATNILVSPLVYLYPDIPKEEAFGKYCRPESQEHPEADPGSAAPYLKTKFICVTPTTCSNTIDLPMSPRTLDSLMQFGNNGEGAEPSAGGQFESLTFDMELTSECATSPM

In general, IC50 refers to the concentration that inhibits the measured activity by half. Lower therefore signals higher potency. `C[C@@H]1C=C2C(=O)O[C@@H]3CC[C@H](C1)[C@]23O`: the inhibition result in [1], in [5] and in [11] was “inactive” each time. The inhibition entry in series [2] was “Active”. In series [3], the viability at 24 h, 10 µM amounted to 90%. In addition, the IC50 in [4] stood at 17.5 µM; in series [7], 16.9 µM; in series [9], 12.7 µM. Further, the Activity result in series [6] is listed as “Non-Toxic”. Moreover, the viability at 24 h, 5 µM in series [8] is 97%. In [10], the inhibition entry was “Dose-dependent effect”.
